Source: patent publication US11414474B2, “Long-acting adrenomedullin derivatives” (University of Miyazaki, priority 2014, dated 2022)
One block for each molecule: values may come before it.

Legend:
[1] = system: blood pressure of the rat; experiment: Blood pressure-lowering effect after single intravenous dose in anesthetized rats; assay type: in vivo; details: intravenous single dose 10 nmol/kg
Description: From the catheter tube of the right jugular vein, a physiological saline-heparin solution (physiological saline: 100 ml; heparin: 1000 units) was infused at 2.4 ml/hr. […] The catheter inserted in the carotid artery was connected to a pressure transducer. […] In the figure, the longitudinal axis indicates a difference obtained by subtracting the average blood pressure before the administration of each drug from the average blood pressure at the time of the administration of each drug.
In the case of these derivatives, the blood pressure-lowering effect was sustained even 90 minutes after the administration. […] The blood pressure-lowering effect of the adrenomedullin derivative shown in this test was well consistent with the prolonged half-life in blood shown in the above test.

[2] = target: T1, AM receptor (Homo sapiens, UniProt Q16602); experiment: Intracellular cAMP concentration-increasing effect in AM receptor-expressing HEK293 cells (cAMP ELISA); assay type: cell-based
T1 construct: expressed in transfected cells; host or cells: HEK293 cell line
Description: Then, the intracellular cAMP concentration in the HEK293 cells of each test sample was measured using an ELISA kit for cAMP measurement (GE Healthcare Japan Corp., #RPN2251).

[3] = in vivo; details: male, Wistar, rat, iv
Description: Each 11 to 14-week-old male Wistar rat was anesthetized by the inhalation of isoflurane. After tracheotomy, inhalational anesthesia was controlled at an isoflurane concentration of 1.5 to 2.5% and a flow rate of 0.6 to 0.8 L/min. The right jugular vein was isolated from the rat, and a catheter tube corresponding to 26 G was inserted thereto. Next, the left carotid artery was isolated from the rat thus treated, and a catheter tube corresponding to 23 G was inserted thereto. […] From the catheter inserted in the carotid artery, 300 μl of blood was collected over time from the start of the administration. Immediately, EDTA-2Na (300 μg) and aprotinin (21 μg) were added to the obtained blood sample, and the mixture was further centrifuged under conditions involving 3000 rpm and 10 minutes to obtain plasma. The AM concentration in the plasma of each sample was measured by chemiluminescent enzyme immunoassay. The half-lives in blood of the first and second phases were calculated from the measurement results of the AM concentration in the plasma using a two-compartment model.

[4] = system: DSS-induced enteritis (inflammatory bowel disease model); experiment: Therapeutic effect on DSS-induced inflammatory bowel disease model (total score, length of intestinal tract); assay type: in vivo, mouse; parameters: total score, median value / total score, mean±standard deviation: scale not given here; details: for total score as compared with the control group: Steel's multiple comparison test, p<0.05 or P<0.01
Description: The body weight of the subject mouse was measured 3, 5, 7, 10 and 14 days after the start of the administration.
The body weight of the subject mouse and the form of stool thereof were evaluated 3, 5, 7, 10 and 14 days after the start of the administration on the basis of scoring criteria given below. The obtained scores were summed to calculate the total score of each sample.
The intestinal tract excised by anatomy was opened along its longitudinal axis, and fat tissues were removed, followed by washing with physiological saline. Next, the length of the intestinal tract was measured.
The total score evaluated by the procedures described above is indicated by a median value [mean±standard deviation]. The total scores of the control group obtained 3, 5, 7, 10 and 14 days after the start of the administration were 0.0 [0.6±0.3], 4.0 [3.7±0.4], 6.0 [5.4±0.5], 3.5 [4.1±0.4] and 0.0 [0.0±0.0], respectively.

[5] = second-phase half-life in blood
[6] = 0.02 nmol/kg/hr, 3 days after the start of the administration
[7] = 0.1 nmol/kg/hr, 3 days after the start of the administration
[8] = 0.5 nmol/kg/hr, 3 days after the start of the administration

T1 sequence (Q16602 23-461): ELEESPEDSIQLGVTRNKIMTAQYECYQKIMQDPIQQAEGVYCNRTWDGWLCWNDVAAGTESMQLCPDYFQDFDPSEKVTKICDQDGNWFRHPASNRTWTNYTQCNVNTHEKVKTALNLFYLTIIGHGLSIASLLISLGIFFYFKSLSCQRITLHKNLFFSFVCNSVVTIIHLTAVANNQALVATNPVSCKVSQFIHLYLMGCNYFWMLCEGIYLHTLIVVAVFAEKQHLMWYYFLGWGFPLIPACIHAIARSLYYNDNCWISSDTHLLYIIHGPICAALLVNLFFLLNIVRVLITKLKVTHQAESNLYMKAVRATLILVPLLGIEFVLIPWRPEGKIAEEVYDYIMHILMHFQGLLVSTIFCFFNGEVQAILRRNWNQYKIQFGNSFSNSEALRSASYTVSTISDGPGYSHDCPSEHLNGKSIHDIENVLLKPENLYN
T1 sequence (O60895 43-175 partner): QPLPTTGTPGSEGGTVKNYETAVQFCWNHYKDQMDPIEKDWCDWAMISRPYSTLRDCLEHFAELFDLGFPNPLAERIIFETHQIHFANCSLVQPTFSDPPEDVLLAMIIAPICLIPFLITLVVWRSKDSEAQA

Molecule: CCCCCCCCCCCCCCCC(=O)N[C@@H](Cc1ccc(O)cc1)C(=O)N[C@@H](CCCNC(=N)N)C(=O)N[C@@H](CCC(N)=O)C(=O)N[C@@H](CO)C(=O)N[C@@H](CCSC)C(=O)N[C@@H](CC(N)=O)C(=O)N[C@@H](CC(N)=O)C(=O)N[C@@H](Cc1ccccc1)C(=O)N[C@@H](CCC(N)=O)C(=O)NCC(=O)N[C@@H](CC(C)C)C(=O)N[C@@H](CCCNC(=N)N)C(=O)N[C@@H](CO)C(=O)N[C@@H](Cc1ccccc1)C(=O)NCC(=O)N[C@H]1CSSC[C@@H](C(=O)N[C@H](C(=O)N[C@H](C(=O)N[C@@H](CCC(N)=O)C(=O)N[C@@H](CCCCN)C(=O)N[C@@H](CC(C)C)C(=O)N[C@@H](C)C(=O)N[C@@H](Cc2c[nH]cn2)C(=O)N[C@@H](CCC(N)=O)C(=O)N[C@H](C(=O)N[C@@H](Cc2ccc(O)cc2)C(=O)N[C@@H](CCC(N)=O)C(=O)N[C@@H](Cc2ccccc2)C(=O)N[C@H](C(=O)N[C@@H](CC(=O)O)C(=O)N[C@@H](CCCCN)C(=O)N[C@@H](CC(=O)O)C(=O)N[C@@H](CCCCN)C(=O)N[C@@H](CC(=O)O)C(=O)N[C@@H](CC(N)=O)C(=O)N[C@H](C(=O)N[C@@H](C)C(=O)N2CCC[C@H]2C(=O)N[C@@H](CCCNC(=N)N)C(=O)N[C@@H](CO)C(=O)N[C@@H](CCCCN)C(=O)N[C@H](C(=O)N[C@@H](CO)C(=O)N2CCC[C@H]2C(=O)N[C@@H](CCC(N)=O)C(=O)NCC(=O)N[C@@H](Cc2ccc(O)cc2)C(N)=O)[C@@H](C)CC)C(C)C)[C@@H](C)O)[C@@H](C)CC)C(C)C)[C@@H](C)O)NC(=O)[C@H]([C@@H](C)O)NC(=O)CNC(=O)[C@H](Cc2ccccc2)NC(=O)[C@H](CCCNC(=N)N)NC1=O [Pal-h.AM(1-52)]
effect on blood pressure [1]: lowered the blood pressure | maximum pressure drop value compared with h.AM(1-52) [1]: lower than the value of h.AM(1-52) | EC50 [2]: 3.24 nM | maximum response value of increase in cAMP concentration as compared with h.AM(1-52) ([2]; AM receptor-expressing HEK293 cells): substantially equivalent | half-life ([3]; first-phase half-life in blood): 3.51 min | half-life [3, 5]: 123 min

half-life ([3]; first-phase half-life in blood): 0.61 min | half-life [3, 5]: 18.9 min
Molecule: CC[C@H](C)[C@H](NC(=O)[C@H](CCC(N)=O)NC(=O)[C@H](Cc1c[nH]cn1)NC(=O)[C@H](C)NC(=O)[C@H](CC(C)C)NC(=O)[C@H](CCCCN)NC(=O)[C@H](CCC(N)=O)NC(=O)[C@@H](NC(=O)[C@@H](NC(=O)[C@@H]1CSSC[C@H](NC(=O)CNC(=O)[C@H](Cc2ccccc2)NC(=O)[C@H](CO)NC(=O)[C@H](CCCNC(=N)N)NC(=O)[C@H](CC(C)C)NC(=O)CNC(=O)[C@H](CCC(N)=O)NC(=O)[C@H](Cc2ccccc2)NC(=O)[C@H](CC(N)=O)NC(=O)[C@H](CC(N)=O)NC(=O)[C@H](CCSC)NC(=O)[C@H](CO)NC(=O)[C@H](CCC(N)=O)NC(=O)[C@H](CCCNC(=N)N)NC(=O)[C@@H](N)Cc2ccc(O)cc2)C(=O)N[C@@H](CCCNC(=N)N)C(=O)N[C@@H](Cc2ccccc2)C(=O)NCC(=O)N[C@@H]([C@@H](C)O)C(=O)N1)[C@@H](C)O)C(C)C)C(=O)N[C@@H](Cc1ccc(O)cc1)C(=O)N[C@@H](CCC(N)=O)C(=O)N[C@@H](Cc1ccccc1)C(=O)N[C@H](C(=O)N[C@@H](CC(=O)O)C(=O)N[C@@H](CCCCN)C(=O)N[C@@H](CC(=O)O)C(=O)N[C@@H](CCCCN)C(=O)N[C@@H](CC(=O)O)C(=O)N[C@@H](CC(N)=O)C(=O)N[C@H](C(=O)N[C@@H](C)C(=O)N1CCC[C@H]1C(=O)N[C@@H](CCCNC(=N)N)C(=O)N[C@@H](CO)C(=O)N[C@@H](CCCCN)C(=O)N[C@H](C(=O)N[C@@H](CO)C(=O)N1CCC[C@H]1C(=O)N[C@@H](CCC(N)=O)C(=O)NCC(=O)N[C@@H](Cc1ccc(O)cc1)C(N)=O)[C@@H](C)CC)C(C)C)[C@@H](C)O [h.AM(1-52), reference compound]
effect on blood pressure [1]: lowered the blood pressure | time after the administration at which the blood pressure before the administration was restored [1]: 30 min | time of maximum pressure drop after the administration [1]: 2 min

Molecule: PEG5000-h.AM(1-52): human adrenomedullin (1-52) N-terminally linked to PEG having an average molecular weight of 5000 via 1-oxo-1,6-hexanediyl
effect on blood pressure [1]: lowered the blood pressure | maximum pressure drop value compared with h.AM(1-52) [1]: lower than the value of h.AM(1-52) | total score, mean±standard deviation [4, 6]: 0.8±0.2 | total score, median value [4, 6]: 1.0 | total score, mean±standard deviation ([4]; 0.02 nmol/kg/hr, 5 days): 2.8±0.5 | total score, median value ([4]; 0.02 nmol/kg/hr, 5 days): 2.5 | total score, mean±standard deviation ([4]; 0.02 nmol/kg/hr, 7 days): 5.7±0.4 | total score, median value ([4]; 0.02 nmol/kg/hr, 7 days): 5.5 | total score, mean±standard deviation ([4]; 0.02 nmol/kg/hr, 10 days): 3.1±0.8 | total score, median value ([4]; 0.02 nmol/kg/hr, 10 days): 2.5 | length of the intestinal tract (mean±standard deviation) ([4]; 0.02 nmol/kg/hr, 14 days): 69.4±1.5 mm | total score, mean±standard deviation ([4]; 0.02 nmol/kg/hr, 14 days): 0.0±0.0 | total score, median value ([4]; 0.02 nmol/kg/hr, 14 days): 0.0 | total score, mean±standard deviation [4, 7]: 0.7±0.3 | total score, median value [4, 7]: 0.0 | total score, mean±standard deviation ([4]; 0.1 nmol/kg/hr, 5 days): 1.9±0.5 | total score, median value ([4]; 0.1 nmol/kg/hr, 5 days): 1.5 | total score, mean±standard deviation ([4]; 0.1 nmol/kg/hr, 7 days): 4.1±0.4 | total score, median value ([4]; 0.1 nmol/kg/hr, 7 days): 5.0 | total score, mean±standard deviation ([4]; 0.1 nmol/kg/hr, 10 days): 2.0±0.5 | total score, median value ([4]; 0.1 nmol/kg/hr, 10 days): 2.0 | total score as compared with the control group ([4]; 0.1 nmol/kg/hr, 10 days): significant decrease | length of the intestinal tract (mean±standard deviation) ([4]; 0.1 nmol/kg/hr, 14 days): 71.4±0.9 mm | total score, mean±standard deviation ([4]; 0.1 nmol/kg/hr, 14 days): 0.0±0.0 | total score, median value ([4]; 0.1 nmol/kg/hr, 14 days): 0.0 | total score as compared with the control group ([4]; 0.5 nmol/kg/hr, 5, 7 and 10 days): significant decrease | total score, mean±standard deviation [4, 8]: 1.3±0.3 | total score, median value [4, 8]: 1.0 | total score, mean±standard deviation ([4]; 0.5 nmol/kg/hr, 5 days): 1.1±0.3 | total score, median value ([4]; 0.5 nmol/kg/hr, 5 days): 1.5 | total score, mean±standard deviation ([4]; 0.5 nmol/kg/hr, 7 days): 3.0±0.3 | total score, median value ([4]; 0.5 nmol/kg/hr, 7 days): 3.0 | total score, mean±standard deviation ([4]; 0.5 nmol/kg/hr, 10 days): 2.1±0.4 | total score, median value ([4]; 0.5 nmol/kg/hr, 10 days): 2.0 | length of the intestinal tract (mean±standard deviation) ([4]; 0.5 nmol/kg/hr, 14 days): 72.4±0.9 mm | total score, mean±standard deviation ([4]; 0.5 nmol/kg/hr, 14 days): 0.0±0.0 | total score, median value ([4]; 0.5 nmol/kg/hr, 14 days): 0.0 | length of the intestinal tract as compared with the control group ([4]; all of 0.02, 0.1 and 0.5 nmol/kg/hr, Dunnett's multiple comparison test, P<0.05 or P<0.01): significantly different
